# Measurements reported in ChEMBL document CHEMBL4346718, “Cucurbitacins inspired organic synthesis: Potential dual inhibitors targeting EGFR - MAPK pathway” (Eur J Med Chem, 2019).
# Activity calls are given as the source filed them. No cut-off for these calls is given here.
# Assays:
# HepG2 [1] = experiment: Antiproliferative activity against human HepG2 cells assessed as reduction in cell growth incubated for 48 hrs by MTT assay; type: functional, cell-based; conditions: HepG2, 48 h
# HepG2 [2] = experiment: Induction of apoptosis in human HepG2 cells assessed as increase in cleaved caspase-3 level at 2 uM incubated for 48 hrs by Western blot analysis; type: functional, cell-based
# HepG2 [3] = experiment: Induction of apoptosis in human HepG2 cells assessed as increase in cleaved PARP-1 level at 2 uM incubated for 48 hrs by Western blot analysis; type: functional, cell-based
# HepG2 [4] = experiment: Inhibition of EGFR/MAPK signalling pathway in human HepG2 cells assessed as reduction in phosphorylation of ERK 1/2 at 3 uM incubated up to 48 hrs by Western blot analysis; type: cell-based
# HepG2 [5] = experiment: Inhibition of EGFR/MAPK signalling pathway in human HepG2 cells assessed as reduction in phosphorylation of MEK at 3 uM incubated up to 48 hrs by Western blot analysis; type: cell-based
# HepG2 [6] = experiment: Induction of cell cycle arrest in human HepG2 cells assessed as accumulation at G2 phase at 1 uM incubated for 24 hrs by flow cytometry analysis (reference value: 37.5%); type: functional
# HepG2 [7] = experiment: Inhibition of EGFR/MAPK signalling pathway in human HepG2 cells assessed as reduction in ELK phosphorylation incubated for 24 hrs by Western blot analysis; type: cell-based
# HepG2 [8] = experiment: Induction of cell cycle arrest in human HepG2 cells assessed as accumulation at S phase at 2 uM incubated for 24 hrs by flow cytometry analysis (reference value: 26.1%); type: functional
# HepG2 [9] = experiment: Induction of cell cycle arrest in human HepG2 cells assessed as accumulation at G2 phase at 2 uM incubated for 24 hrs by flow cytometry analysis (reference value: 37.5%); type: functional
# HepG2 [10] = experiment: Inhibition of EGFR/MAPK signalling pathway in human HepG2 cells assessed as reduction in phosphorylation of EGFR at 3 uM incubated for 48 hrs by Western blot analysis; type: cell-based
# HepG2 [11] = experiment: Induction of apoptosis in human HepG2 cells assessed as increase in cleaved caspase-9 level at 2 uM incubated for 48 hrs by Western blot analysis; type: functional, cell-based
# HepG2 [12] = experiment: Inhibition of EGFR/MAPK signalling pathway in human HepG2 cells assessed as reduction in phosphorylation of B-RAF at 3 uM incubated for 24 hrs by Western blot analysis; type: cell-based
# HepG2 [13] = experiment: Induction of cell cycle arrest in human HepG2 cells assessed as accumulation at G1 phase at 1 uM incubated for 24 hrs by flow cytometry analysis (reference value: 32.3%); type: functional
# HepG2 [14] = experiment: Induction of cell cycle arrest in human HepG2 cells assessed as accumulation at S phase at 1 uM incubated for 24 hrs by flow cytometry analysis (reference value: 26.1%); type: functional
# HepG2 [15] = experiment: Induction of cell cycle arrest in human HepG2 cells assessed as accumulation at G1 phase at 2 uM incubated for 24 hrs by flow cytometry analysis (reference value: 32.3%); type: functional
# HepG2 [16] = experiment: Induction of cell cycle arrest in human HepG2 cells assessed as accumulation at S phase at 4 uM incubated for 24 hrs by flow cytometry analysis (reference value: 26.1%); type: functional
# HepG2 [17] = experiment: Inhibition of cell migration in human HepG2 cells at IC50 incubated for 48 hrs by phase contrast microscopy; type: functional
# HepG2 [18] = experiment: Induction of cell cycle arrest in human HepG2 cells assessed as accumulation at G2 phase at 4 uM incubated for 24 hrs by flow cytometry analysis (reference value: 37.5%); type: functional
# HepG2 [19] = experiment: Induction of cell cycle arrest in human HepG2 cells assessed as accumulation at G1 phase at 4 uM incubated for 24 hrs by flow cytometry analysis (reference value: 32.3%); type: functional
# HepG2 [20] = experiment: Inhibition of EGFR/MAPK signalling pathway in human HepG2 cells assessed as reduction in phosphorylation of B-RAF at 2 uM incubated for 8 hrs by Western blot analysis; type: cell-based
# HepG2 [21] = experiment: Inhibition of EGFR/MAPK signalling pathway in human HepG2 cells assessed as reduction in phosphorylation of ERK 1/2 at 2 uM incubated up to 48 hrs by Western blot analysis; type: cell-based
# HepG2 [22] = experiment: Inhibition of EGFR/MAPK signalling pathway in human HepG2 cells assessed as reduction in phosphorylation of EGFR at 2 uM incubated for 2 hrs by Western blot analysis; type: cell-based
# HepG2 [23] = experiment: Inhibition of EGFR/MAPK signalling pathway in human HepG2 cells assessed as reduction in phosphorylation of MEK at 2 uM incubated up to 48 hrs by Western blot analysis; type: cell-based
compound,measurement,setting,value
COc1ccc2c(c1)CC[C@@H]1[C@@H]2CC[C@]2(C)C([C@](C)(O)C(=O)/C=C/c3ccc([N+](=O)[O-])cc3)=CC[C@@H]12,IC50,HepG2 [1],29 µM
COc1ccc2c(c1)CC[C@@H]1[C@@H]2CC[C@]2(C)C([C@](C)(O)C(=O)/C=C/c3ccc(F)cc3)=CC[C@@H]12,IC50,HepG2 [1],8 µM
COc1ccc2c(c1)CC[C@@H]1[C@@H]2CC[C@]2(C)C([C@](C)(O)C(=O)/C=C/c3ccc(Br)s3)=CC[C@@H]12,IC50,HepG2 [1],11 µM
COc1ccc(/C=C/C(=O)[C@@](C)(O)C2=CC[C@H]3[C@@H]4CCc5cc(OC)ccc5[C@H]4CC[C@]23C)cc1,IC50,HepG2 [1],16 µM
COc1ccc2c(c1)CC[C@@H]1[C@@H]2CC[C@]2(C)C([C@@](C)(O)C(=O)/C=C/C(C)(C)O)=CC[C@@H]12,Activity,HepG2 [2],Active
same,Activity,HepG2 [3],Active
same,inhibition,HepG2 [4],Active
same,inhibition,HepG2 [5],Active
same,Activity,HepG2 [6],38%
same,inhibition,HepG2 [7],Active
same,IC50,HepG2 [1],2 µM
same,Activity,HepG2 [8],23.2%
same,Activity,HepG2 [9],34.1%
same,inhibition,HepG2 [10],90%
same,Activity,HepG2 [11],Active
same,inhibition,HepG2 [12],Active
same,Activity,HepG2 [13],36.1%
same,Activity,HepG2 [14],23.4%
same,Activity,HepG2 [15],37.6%
same,Activity,HepG2 [16],37.4%
same,inhibition (INH),HepG2 [17],100%
same,Activity,HepG2 [18],21.1%
same,Activity,HepG2 [19],41.1%
COc1ccc2c(c1)CC[C@@H]1[C@@H]2CC[C@]2(C)C([C@@](C)(O)C(=O)/C=C/c3ccc(Br)s3)=CC[C@@H]12,IC50,HepG2 [1],0.7 µM
COc1ccc2c(c1)CC[C@@H]1[C@@H]2CC[C@]2(C)C([C@](C)(O)C(=O)/C=C/C(C)(C)O)=CC[C@@H]12,IC50,HepG2 [1],3 µM
same,inhibition,HepG2 [20],Active
same,inhibition,HepG2 [17],Active
same,inhibition,HepG2 [21],Active
same,inhibition,HepG2 [22],Active
same,inhibition,HepG2 [23],Active
COc1ccc2c(c1)CC[C@@H]1[C@@H]2CC[C@]2(C)C([C@@](C)(O)C(=O)/C=C/c3ccc(C(F)(F)F)cc3)=CC[C@@H]12,IC50,HepG2 [1],2 µM
COc1ccc2c(c1)CC[C@@H]1[C@@H]2CC[C@]2(C)C([C@@](C)(O)C(=O)/C=C/c3ccc(Cl)cc3)=CC[C@@H]12,IC50,HepG2 [1],25 µM
COc1ccc2c(c1)CC[C@@H]1[C@@H]2CC[C@]2(C)C([C@](C)(O)C(=O)/C=C/c3ccc(C(F)(F)F)cc3)=CC[C@@H]12,IC50,HepG2 [1],3 µM
COc1ccc2c(c1)CC[C@@H]1[C@@H]2CC[C@]2(C)C([C@@](C)(O)C(=O)/C=C/c3ccc(Br)cc3)=CC[C@@H]12,IC50,HepG2 [1],32 µM
COc1ccc2c(c1)CC[C@@H]1[C@@H]2CC[C@]2(C)C([C@@](C)(O)C(=O)/C=C/c3ccc(Br)o3)=CC[C@@H]12,IC50,HepG2 [1],6 µM
C#Cc1cccc(Nc2ncnc3cc(OCCOC)c(OCCOC)cc23)c1 [ERLOTINIB],inhibition (INH),HepG2 [17],93%
COc1ccc(/C=C/C(=O)[C@](C)(O)C2=CC[C@H]3[C@@H]4CCc5cc(OC)ccc5[C@H]4CC[C@]23C)cc1,IC50,HepG2 [1],2 µM
COc1ccc2c(c1)CC[C@@H]1[C@@H]2CC[C@]2(C)C([C@@](C)(O)C(=O)/C=C/c3ccc([N+](=O)[O-])cc3)=CC[C@@H]12,IC50,HepG2 [1],20 µM
COc1ccc2c(c1)CC[C@@H]1[C@@H]2CC[C@]2(C)C([C@@](C)(O)C(=O)/C=C/c3ccc(F)cc3)=CC[C@@H]12,IC50,HepG2 [1],7 µM
